Test results published in ChEMBL document CHEMBL1158912, “Structure and in vitro antiviral activity of sesquiterpene glycosides from Calendula arvensis” (J Nat Prod, 1990).
In brackets after ≈: the same amount, converted by molar mass.

How the values were obtained:
[1] = Cytotoxicity against golden hamster CER cells assessed as cell viability at 100 ug/mL after 48 hrs by neutral red assay; assay type: cell-based, Mesocricetus auratus
HeLa [2] = test: Cytotoxicity against human HeLa cells assessed as cell viability at 100 ug/mL after 48 hrs by neutral red assay; assay type: cell-based
[3] = Cytotoxicity against golden hamster CER cells assessed as cell viability at 20 ug/mL after 48 hrs by neutral red assay; assay type: cell-based, Mesocricetus auratus
HeLa [4] = test: Cytotoxicity against human HeLa cells assessed as cell viability at 20 ug/mL after 48 hrs by neutral red assay; assay type: cell-based
[5] = system: Vesicular stomatitis virus; test: Antiviral activity against VSV infected in CER cells assessed as reduction in plaque formation at 20 ug/ml after 48 hrs by neutral red assay; assay type: functional; design: scale not given: the % may be the effect or the level left
[6] = system: Vesicular stomatitis virus; test: Antiviral activity against VSV infected in CER cells assessed as reduction in plaque formation at 4 ug/ml after 48 hrs by neutral red assay; assay type: functional; design: scale not given: the % may be the effect or the level left
[7] = system: Vesicular stomatitis virus; test: Antiviral activity against VSV infected in CER cells assessed as reduction in plaque formation at 0.8 ug/ml after 48 hrs by neutral red assay; assay type: functional; design: scale not given: the % may be the effect or the level left
[8] = system: Vesicular stomatitis virus; test: Antiviral activity against VSV infected in CER cells assessed as reduction in plaque formation after 48 hrs by neutral red assay; assay type: functional
rhinovirus A1B [9] = test: Antiviral activity against HRV1B infected in human HeLa cells assessed as inhibition of virus-induced cytopathicity at 20 ug/ml after 48 hrs; assay type: functional, Human rhinovirus 1B; design: scale not given: the % may be the effect or the level left
rhinovirus A1B [10] = test: Antiviral activity against HRV1B infected in human HeLa cells assessed as inhibition of virus-induced cytopathicity at 4 ug/ml after 48 hrs; assay type: functional, Human rhinovirus 1B; design: scale not given: the % may be the effect or the level left
rhinovirus A1B [11] = test: Antiviral activity against HRV1B infected in human HeLa cells assessed as inhibition of virus-induced cytopathicity at 0.8 ug/ml after 48 hrs; assay type: functional, Human rhinovirus 1B; design: scale not given: the % may be the effect or the level left
[12] = system: Vesicular stomatitis virus; test: Antiviral activity against VSV infected in CER cells assessed as reduction in plaque formation at 100 ug/ml after 48 hrs by neutral red assay; assay type: functional; design: scale not given: the % may be the effect or the level left
[13] = system: Vesicular stomatitis virus; test: Antiviral activity against VSV infected in CER cells assessed as reduction in plaque formation at 50 ug/ml after 48 hrs by neutral red assay; assay type: functional; design: scale not given: the % may be the effect or the level left
rhinovirus A1B [14] = test: Antiviral activity against HRV1B infected in human HeLa cells assessed as inhibition of virus-induced cytopathicity at 100 ug/ml after 48 hrs; assay type: functional, Human rhinovirus 1B; design: scale not given: the % may be the effect or the level left
rhinovirus A1B [15] = test: Antiviral activity against HRV1B infected in human HeLa cells assessed as inhibition of virus-induced cytopathicity at 50 ug/ml after 48 hrs; assay type: functional, Human rhinovirus 1B; design: scale not given: the % may be the effect or the level left

SMILES | Activity [1] | Activity (HeLa [2]) | Activity [3] | Activity (HeLa [4]) | Activity [5] | Activity [6] | Activity [7] | MIC50 [8] | Activity (rhinovirus A1B [9]) | Activity (rhinovirus A1B [10]) | Activity (rhinovirus A1B [11]) | Activity [12] | Activity [13] | Activity (rhinovirus A1B [14]) | Activity (rhinovirus A1B [15])
CC(C)C(=O)O[C@H]1[C@H](O[C@]2(C)CC[C@@H]3[C@H]([C@@H]4[C@H](C)CC[C@@H]42)C3(C)C)O[C@H](C)[C@H](O)[C@@H]1O | Non-toxic | Non-toxic | Non-toxic | Non-toxic | 9% | 0% | 0% | > 20 µg/mL | 0% | 0% | 0% |  |  |  | 
C[C@@H]1CC[C@H]2[C@@H]1[C@H]1[C@@H](CC[C@@]2(C)O[C@@H]2O[C@H](C)[C@H](O)[C@H](O)[C@H]2O)C1(C)C | Non-toxic | Non-toxic | Non-toxic | Non-toxic | 73% | 19% | 8% | 14 µg/mL (≈ 38 µM) | 0% | 0% | 0% |  |  |  | 
CC(C)[C@@H]1CC[C@@H](C)C23CC[C@@](C)(O[C@@H]4O[C@H](C)[C@H](O)[C@H](O)[C@H]4O)[C@@H]2[C@@H]13 (some centres undefined) [EPICUBEBOL GLYCOSIDE] | Non-toxic | Non-toxic | Non-toxic | Non-toxic | 4% | 0% |  | 36 µg/mL (≈ 97.7 µM) | 0% | 0% |  | 100% | 90% | 25% | 0%
CC(=O)O[C@H]1[C@H](O[C@]2(C)CC[C@@H]3[C@H]([C@@H]4[C@H](C)CC[C@@H]42)C3(C)C)O[C@H](C)[C@H](O)[C@@H]1O | Non-toxic | Non-toxic | Non-toxic | Non-toxic | 10% | 7% | 0% | > 20 µg/mL | 0% | 0% | 0% |  |  |  | 
CCC(C)C(=O)O[C@H]1[C@H](O[C@]2(C)CC[C@@H]3[C@H]([C@@H]4[C@H](C)CC[C@@H]42)C3(C)C)O[C@H](C)[C@H](O)[C@@H]1O (some centres undefined) | Non-toxic | Non-toxic | Non-toxic | Non-toxic | 30% | 20% | 5% | > 20 µg/mL | 0% | 0% | 0% |  |  |  | 
C/C=C(\C)C(=O)O[C@H]1[C@H](O[C@]2(C)CC[C@@H]3[C@H]([C@@H]4[C@H](C)CC[C@@H]42)C3(C)C)O[C@H](C)[C@H](O)[C@@H]1O | Non-toxic | Non-toxic | Non-toxic | Non-toxic | 22% | 13% | 0% | > 20 µg/mL | 0% | 0% | 0% |  |  |  | 
CC/C(C)=C\C(=O)O[C@H]1[C@H](O[C@]2(C)CC[C@@H]3[C@H]([C@@H]4[C@H](C)CC[C@@H]42)C3(C)C)O[C@H](C)[C@H](O)[C@@H]1O | Non-toxic | Non-toxic | Non-toxic | Non-toxic | 22% | 18% | 5% | > 20 µg/mL | 0% | 0% | 0% |  |  |  | 
